The values below come from patent US9688710B2, “Inhibitors of sodium glucose cotransporter 1” (LEXICON PHARMACEUTICALS, INC., priority 2012, dated 2017).

pIC50: −log10 of the molar value. Bounds are passed on as bounds.

The target in experiment [1] is Human sodium/glucose co-transporter type 2 (SGLT2) (Homo sapiens (Human), UniProt P31639). Kind of experiment: In vitro human SGLT2 inhibition assay (14C-AMG uptake). The experiment is classed as cell-based. As to conditions: HEK293 cells expressing human HA-SGLT2, 14C-AMG uptake. The method, then: Human sodium/glucose co-transporter type 2 (SGLT2; accession number P31639; GI:400337) was cloned into pIRESpuro2 vector for mammalian expression (construct: HA-SGLT2-pIRESpuro2).
Chain of Human sodium/glucose co-transporter type 2 (SGLT2) (P31639 whole entry): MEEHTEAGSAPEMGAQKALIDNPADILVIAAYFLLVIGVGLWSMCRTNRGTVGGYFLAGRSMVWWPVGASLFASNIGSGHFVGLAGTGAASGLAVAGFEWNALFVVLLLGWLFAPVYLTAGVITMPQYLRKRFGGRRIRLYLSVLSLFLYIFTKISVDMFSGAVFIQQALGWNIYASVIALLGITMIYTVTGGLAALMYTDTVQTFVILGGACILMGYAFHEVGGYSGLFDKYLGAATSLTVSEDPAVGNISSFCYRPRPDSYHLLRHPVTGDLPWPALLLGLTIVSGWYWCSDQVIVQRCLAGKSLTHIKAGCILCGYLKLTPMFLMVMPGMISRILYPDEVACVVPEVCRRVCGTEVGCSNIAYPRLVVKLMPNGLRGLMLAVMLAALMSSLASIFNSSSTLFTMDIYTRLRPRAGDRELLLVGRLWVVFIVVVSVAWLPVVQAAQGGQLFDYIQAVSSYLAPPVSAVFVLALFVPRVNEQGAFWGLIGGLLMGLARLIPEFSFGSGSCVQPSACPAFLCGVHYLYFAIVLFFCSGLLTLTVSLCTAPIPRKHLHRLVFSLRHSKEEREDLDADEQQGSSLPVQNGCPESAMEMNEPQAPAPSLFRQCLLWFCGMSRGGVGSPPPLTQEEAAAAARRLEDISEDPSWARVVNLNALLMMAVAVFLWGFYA
HEK293 cells were transfected with the human HA-SGLT2-pIRESpuro2 vector and the bulk stable cell line was selected in presence of 0.5 μg/mL of puromycin. Human HA-SGLT2 cells were maintained in DMEM media containing 10% FBS, 1% GPS and 0.5 μg/mL of puromycin.
The HEK293 cells expressing the human HA-SGLT2 were seeded in 384 well plates (30,000 cells/well) in DMEM media containing 10% FBS, 1% GPS and 0.5 μg/mL of puromycin, then incubated overnight at 37 C, 5% CO2. Cells were then washed with uptake buffer (140 mM NaCl, 2 mM KCl, 1 mM CaCl2, 1 mM MgCl2, 10 mM HEPES, 5 mM Tris, 1 mg/mL bovine serum albumin (BSA), pH 7.3). Twenty microliters of uptake buffer with or without testing compounds were added to the cells. Then, 20 microliters of uptake buffer containing ^14C-AMG (100 nCi) were added to the cells. The cell plates were incubated at 37° C., 5% CO2 for 1-2 hours. After washing the cells with uptake buffer, scintillation fluid was added (40 microliters/well) and ^14C-AMG uptake was measured by counting radioactivity using a scintillation coulter (TopCoulter NXT; Packard Instruments).

In experiment [2] the target is Human sodium/glucose co-transporter type 1 (SGLT1) (Homo sapiens (Human), UniProt P13866). Kind of experiment: In vitro human SGLT1 inhibition assay (14C-AMG uptake). The experiment is classed as cell-based. As to conditions: HEK293 cells expressing human HA-SGLT1, 14C-AMG uptake. Also noted: key to SGLT1 (human SGLT1 IC50): ***: a value less than 0.01 μM; **: a value less than 0.1 μM; *: a value less than 1 μM; —: a value not measured or exceeding μM. The method, then:
Human sodium/glucose co-transporter type 1 (SGLT1; accession number NP_000334; GI: 4507031) was cloned into pIRESpuro2 vector for mammalian expression (construct: HA-SGLT1-pIRESpuro2).
HEK293 cells were transfected with the human HA-SGLT1-pIRESpuro2 vector and the bulk stable cell line was selected in presence of 0.5 μg/mL of puromycin. Human HA-SGLT1 cells were maintained in DMEM media containing 10% FBS, 1% GPS and 0.5 μg/mL of puromycin.
The HEK293 cells expressing the human HA-SGLT1 were seeded in 384 well plates (30,000 cells/well) in DMEM media containing 10% FBS, 1% GPS and 0.5 μg/mL of puromycin, then incubated overnight at 37 C, 5% CO2. Cells were then washed with uptake buffer (140 mM NaCl, 2 mM KCl, 1 mM CaCl2, 1 mM MgCl2, 10 mM HEPES, 5 mM Tris, 1 mg/mL bovine serum albumin (BSA), pH 7.3). Twenty microliters of uptake buffer with or without testing compounds were added to the cells. Then, 20 microliters of uptake buffer containing ^14C-AMG (100 nCi) were also added to cells. The cell plates were incubated at 37° C., 5% CO2 for 1-2 hours. After washing the cells with uptake buffer, scintillation fluid was added (40 microliters/well) and ^14C-AMG uptake was measured by counting radioactivity using a scintillation coulter (TopCoulter NXT; Packard Instruments).

Broadly, the pIC50 is −log10 of the IC50, conventionally taken in molar units.

Chain of Human sodium/glucose co-transporter type 1 (SGLT1) (P13866 whole entry): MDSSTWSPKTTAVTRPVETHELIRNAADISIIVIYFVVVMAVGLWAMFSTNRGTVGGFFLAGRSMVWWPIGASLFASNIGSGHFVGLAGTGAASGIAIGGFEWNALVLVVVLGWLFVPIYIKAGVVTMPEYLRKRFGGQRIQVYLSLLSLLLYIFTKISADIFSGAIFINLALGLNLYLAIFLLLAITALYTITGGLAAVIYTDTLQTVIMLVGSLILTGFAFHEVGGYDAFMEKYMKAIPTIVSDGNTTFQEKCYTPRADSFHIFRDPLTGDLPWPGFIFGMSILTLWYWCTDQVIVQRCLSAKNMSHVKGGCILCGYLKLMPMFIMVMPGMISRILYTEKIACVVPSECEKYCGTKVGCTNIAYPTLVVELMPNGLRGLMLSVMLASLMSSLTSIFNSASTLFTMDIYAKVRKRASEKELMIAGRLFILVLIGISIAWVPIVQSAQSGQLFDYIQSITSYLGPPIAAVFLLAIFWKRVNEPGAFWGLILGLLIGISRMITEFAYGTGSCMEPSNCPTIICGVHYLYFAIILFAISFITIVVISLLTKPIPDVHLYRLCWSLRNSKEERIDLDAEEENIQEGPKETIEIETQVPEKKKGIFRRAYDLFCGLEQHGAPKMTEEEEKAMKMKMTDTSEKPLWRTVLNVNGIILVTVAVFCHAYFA

For the compound `CS[C@H]1O[C@@H](c2ccc(Cl)c(Cc3ccc(OCCNC(=O)OC(C)(C)C)cc3)c2)[C@H](O)[C@@H](O)[C@@H]1O` [tert-butyl (2-(4-(2-chloro-5-((2S,3R,4R,5S,6R)-3,4,5-trihydroxy-6-(methylthio)tetrahydro-2H-pyran-2-yl)benzyl)phenoxy)ethyl)carbamate], the pIC50 was more than 8.00 in experiment [1] and more than 7.00 in experiment [2].

Consider `CS[C@H]1O[C@@H](c2ccc(Cl)c(Cc3ccc(OCCCC(=O)O)cc3)c2)[C@H](O)[C@@H](O)[C@@H]1O` [4-(4-(2-chloro-5-((2S,3R,4R,5S,6R)-3,4,5-trihydroxy-6-(methylthio)tetrahydro-2H-pyran-2-yl)benzyl)phenoxy)butanoic acid], for which the pIC50 was more than 8.00 in experiment [1] and more than 6.00 in experiment [2].

With `CS[C@H]1O[C@@H](c2ccc(C)c(Cc3ccc(CCCCCC(=O)NC(CO)(CO)CO)cc3)c2)[C@H](O)[C@@H](O)[C@@H]1O` [N-(1,3-dihydroxy-2-(hydroxymethyl)propan-2-yl)-6-(4-(2-methyl-5-((2S,3R,4R,5S,6R)-3,4,5-trihydroxy-6-(methylthio)tetrahydro-2H-pyran-2-yl)benzyl)phenyl)hexanamide], the negative-log IC50 (pIC50) was more than 8.00 in experiment [1] and more than 7.00 in experiment [2].

Regarding `CCOc1ccc(Cc2cc([C@@H]3O[C@H](SC)[C@@H](O)[C@H](O)[C@H]3O)ccc2C)cc1` [(2S,3R,4R,5S,6R)-2-(3-(4-ethoxybenzyl)-4-methylphenyl)-6-(methylthio)tetrahydro-2H-pyran-3,4,5-triol], the values for the negative-log IC50 (pIC50) in experiment [1] and in experiment [2] were more than 8.00 and more than 7.00, respectively.

As to `CS[C@H]1O[C@@H](c2ccc(Cl)c(Cc3ccc(OCCCC[C@H](N)C(=O)O)cc3)c2)[C@H](O)[C@@H](O)[C@@H]1O` [(S)-2-amino-6-(4-(2-chloro-5-((2S,3R,4R,5S,6R)-3,4,5-trihydroxy-6-(methylthio)tetrahydro-2H-pyran-2-yl)benzyl)phenoxy)hexanoic acid], the values for the negative logarithm of the IC50 (pIC50) in experiment [1] and in experiment [2] were more than 8.00 and more than 7.00, respectively.

Regarding `CS[C@H]1O[C@@H](c2ccc(C)c(Cc3ccc(CCCCN(CC(O)CO)CC(O)CO)cc3)c2)[C@H](O)[C@@H](O)[C@@H]1O` (stereo partly drawn) [(2S,3R,4R,5S,6R)-2-(3-(4-(4-(bis(2,3-dihydroxypropyl)amino)butyl)benzyl)-4-methylphenyl)-6-(methylthio)tetrahydro-2H-pyran-3,4,5-triol], the pIC50 in experiment [1] and in experiment [2] was more than 8.00 in each case.

On to `CS[C@H]1O[C@@H](c2ccc(C)c(Cc3ccc(CCCCC(=O)NC(C)(C)C(=O)N4CCN(C)CC4)cc3)c2)[C@H](O)[C@@H](O)[C@@H]1O` [N-(2-methyl-1-(4-methylpiperazin-1-yl)-1-oxopropan-2-yl)-5-(4-(2-methyl-5-((2S,3R,4R,5S,6R)-3,4,5-trihydroxy-6-(methylthio)tetrahydro-2H-pyran-2-yl)benzyl)phenyl)pentanamide], for which the negative-log IC50 (pIC50) in experiment [1] and in experiment [2] was more than 8.00 throughout.

`CS[C@H]1OC(c2ccc(C)c(Cc3ccc(CCCCCl)cc3)c2)[C@H](O)[C@@H](O)[C@@H]1O` (stereo partly drawn) [(3R,4R,5S,6R)-2-(3-(4-(4-chlorobutyl)benzyl)-4-methylphenyl)-6-(methylthio)tetrahydro-2H-pyran-3,4,5-triol]: the negative-log IC50 (pIC50) in experiment [1] and in experiment [2] was more than 8.00 throughout.

Consider `CS[C@H]1O[C@@H](c2ccc(C)c(Cc3ccc(CCCCNC(=O)N4CCN(C)CC4)cc3)c2)[C@H](O)[C@@H](O)[C@@H]1O` [4-methyl-N-(4-(4-(2-methyl-5-((2S,3R,4R,5S,6R)-3,4,5-trihydroxy-6-(methylthio)tetrahydro-2H-pyran-2-yl)benzyl)phenyl)butyl)piperazine-1-carboxamide], for which the pIC50 in experiment [1] was more than 8.00; in experiment [2], more than 7.00.

For the compound `CS[C@H]1O[C@@H](c2ccc(C)c(Cc3ccc(CCCC(=O)NC4(C(=O)N5CCN(C)CC5)CCCC4)cc3)c2)[C@H](O)[C@@H](O)[C@@H]1O` [4-(4-(2-methyl-5-((2S,3R,4R,5S,6R)-3,4,5-trihydroxy-6-(methylthio)tetrahydro-2H-pyran-2-yl)benzyl)phenyl)-N-(1-(4-methylpiperazine-1-carbonyl)cyclopentyl)butanamide], the pIC50 in experiment [1] and in experiment [2] was more than 8.00 throughout.

With `CS[C@H]1O[C@@H](c2ccc(C)c(Cc3ccc(CCC[C@H](N)C(=O)O)cc3)c2)[C@H](O)[C@@H](O)[C@@H]1O` [(S)-2-amino-5-(4-(2-methyl-5-((2S,3R,4R,5S,6R)-3,4,5-trihydroxy-6-(methylthio)tetrahydro-2H-pyran-2-yl)benzyl)phenyl)pentanoic acid], the negative logarithm of the IC50 (pIC50) in experiment [1] was more than 7.00. In addition, the “SGLT1 (human SGLT1 IC50)” value in experiment [2] is “—”.

Take `CS[C@H]1O[C@@H](c2ccc(C)c(Cc3ccc(OCCNC(=N)N)cc3)c2)[C@H](O)[C@@H](O)[C@@H]1O` [1-(2-(4-(2-methyl-5-((2S,3R,4R,5S,6R)-3,4,5-trihydroxy-6-(methylthio)tetrahydro-2H-pyran-2-yl)benzyl)phenoxy)ethyl)guanidine]: the pIC50 in experiment [1] and in experiment [2] was more than 8.00 each time.

On to `CS[C@H]1O[C@@H](c2ccc(C)c(Cc3ccc(OCCCC(=O)NC(C)(C)C(=O)N4CCC(C)CC4)cc3)c2)[C@H](O)[C@@H](O)[C@@H]1O` [N-(2-methyl-1-(4-methylpiperidin-1-yl)-1-oxopropan-2-yl)-4-(4-(2-methyl-5-((2S,3R,4R,5S,6R)-3,4,5-trihydroxy-6-(methylthio)tetrahydro-2H-pyran-2-yl)benzyl)phenoxy)butanamide], for which the pIC50 in experiment [1] and in experiment [2] was more than 8.00 in each case.

With `CS[C@H]1O[C@@H](c2ccc(C)c(Cc3ccc(OCC(=O)NC(C)(C)C(N)=O)cc3)c2)[C@H](O)[C@@H](O)[C@@H]1O` [2-methyl-2-(2-(4-(2-methyl-5-((2S,3R,4R,5S,6R)-3,4,5-trihydroxy-6-(methylthio)tetrahydro-2H-pyran-2-yl)benzyl)phenoxy)acetamido)propanamide], the pIC50 in experiment [1] is more than 8.00; in experiment [2], more than 7.00.

As for `CS[C@H]1O[C@@H](c2ccc(C)c(Cc3ccc(OCC(=O)O)cc3)c2)[C@H](O)[C@@H](O)[C@@H]1O` [2-(4-(2-methyl-5-((2S,3R,4R,5S,6R)-3,4,5-trihydroxy-6-(methylthio)tetrahydro-2H-pyran-2-yl)benzyl)phenoxy)acetic acid], in experiment [1], the pIC50 was more than 7.00. Also, the “SGLT1 (human SGLT1 IC50)” value in experiment [2] is on record as “—”.

As for `CS[C@H]1O[C@@H](c2ccc(C)c(Cc3ccc(OCCCC(=O)NCC(N)=O)cc3)c2)[C@H](O)[C@@H](O)[C@@H]1O` [N-(2-amino-2-oxoethyl)-4-(4-(2-methyl-5-((2S,3R,4R,5S,6R)-3,4,5-trihydroxy-6-(methylthio)tetrahydro-2H-pyran-2-yl)benzyl)phenoxy)butanamide], the pIC50 in experiment [1] is more than 8.00; in experiment [2], more than 7.00.

For `CS[C@H]1O[C@@H](c2ccc(C)c(Cc3ccc(CCCCNC(C)(C)C(=O)N4CCN(C)CC4)cc3)c2)[C@H](O)[C@@H](O)[C@@H]1O` [2-methyl-2-((4-(4-(2-methyl-5-((2S,3R,4R,5S,6R)-3,4,5-trihydroxy-6-(methylthio)tetrahydro-2H-pyran-2-yl)benzyl)phenyl)butyl)amino)-1-(4-methylpiperazin-1-yl)propan-1-one], the pIC50 in experiment [1] and in experiment [2] was more than 8.00 throughout.

On to `CS[C@H]1O[C@@H](c2ccc(C)c(Cc3ccc(CCCCNC(C)(C)CO)cc3)c2)[C@H](O)[C@@H](O)[C@@H]1O` [(2S,3R,4R,5S,6R)-2-(3-(4-(4-((1-hydroxy-2-methylpropan-2-yl)amino)butyl)benzyl)-4-methylphenyl)-6-(methylthio)tetrahydro-2H-pyran-3,4,5-triol], for which the negative logarithm of the IC50 (pIC50) in experiment [1] was more than 8.00; in experiment [2], more than 7.00.
